A word on the IC50: it is the concentration that inhibits the measured activity by half.

Here are results for 15 molecules from ChEMBL document CHEMBL1131900, “4-Hydroxy-1-[3-(5-(1,2,4-triazol-4-yl)-1H-indol-3-yl)propyl]piperidines: selective h5-HT1D agonists for the treatment of migraine” (Bioorg Med Chem Lett, 1999).

Molecules are shown by their SMILES.

Test [1] concerns the target 5-hydroxytryptamine receptor 1B (Homo sapiens, UniProt P28222). As to the kind of experiment: Ability to displace [3H]5-HT from recombinant human 5-hydroxytryptamine 1B receptor stably expressed in CHO cells determined in vitro. Format: cell-based.
Test [2] addresses T1, 5-hydroxytryptamine receptor 1D (Homo sapiens, UniProt P28221). Put plainly: Ability to displace [3H]-5-HT from recombinant human 5-hydroxytryptamine 1D receptor stably expressed in CHO cells determined in vitro. Format: cell-based.
For test [3], the target named is Serotonin 1 receptors; 5-HT1B & 5-HT1D (Homo sapiens) (UniProt P28222+P28221). Put plainly: Binding selectivity for h5-HT1D receptor to that of h5-HT1B receptor. Format: protein assay.
Test [4] has as its target T1, 5-hydroxytryptamine receptor 1D. Put plainly: Maximum stimulation of [35S]GTP gamma-S binding expressed relative to the maximal effect produced by 5-hydroxytryptamine 1D receptor. The class given is functional.
Test [5] has the same target. Put plainly: Measurement of agonist-induced [35S]-GTP gamma-S binding in CHO cells stably transfected with 5-hydroxytryptamine 1D receptor. Format: functional, cell-based. (In general: Binding of GTPγS marks nucleotide exchange on a G protein.)

Sequence of 5-hydroxytryptamine receptor 1B (P28222 whole entry): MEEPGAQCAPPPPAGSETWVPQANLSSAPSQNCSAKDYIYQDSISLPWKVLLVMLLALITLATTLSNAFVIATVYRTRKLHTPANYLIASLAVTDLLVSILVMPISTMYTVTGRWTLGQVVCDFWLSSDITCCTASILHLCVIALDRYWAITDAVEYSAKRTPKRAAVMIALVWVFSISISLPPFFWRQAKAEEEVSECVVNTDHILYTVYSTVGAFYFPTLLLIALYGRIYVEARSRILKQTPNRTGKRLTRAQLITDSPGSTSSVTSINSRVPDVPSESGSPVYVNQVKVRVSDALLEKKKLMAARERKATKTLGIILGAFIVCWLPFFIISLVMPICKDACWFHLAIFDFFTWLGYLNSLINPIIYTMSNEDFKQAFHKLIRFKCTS
T1 sequence (P28221 whole entry): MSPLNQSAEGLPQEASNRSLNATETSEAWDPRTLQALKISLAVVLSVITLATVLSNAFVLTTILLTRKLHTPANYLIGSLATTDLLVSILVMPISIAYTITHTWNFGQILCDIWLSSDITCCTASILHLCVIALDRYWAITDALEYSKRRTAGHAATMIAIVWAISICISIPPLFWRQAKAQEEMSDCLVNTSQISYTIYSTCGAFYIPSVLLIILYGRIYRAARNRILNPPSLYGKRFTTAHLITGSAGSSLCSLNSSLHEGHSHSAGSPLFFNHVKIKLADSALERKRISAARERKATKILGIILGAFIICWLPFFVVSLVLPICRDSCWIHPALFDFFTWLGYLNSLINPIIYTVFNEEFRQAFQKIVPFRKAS

Consider `Cc1ccccc1CNCC1(O)CCN(CCCc2c[nH]c3ccc(-n4cnnc4)cc23)CC1`, for which the IC50 worked out at 83 nM in test [1] and 4 nM in test [2]. Besides, in test [3], the Ratio amounted to 21.

Regarding `CC(C)(C)OC(=O)NCC1(O)CCN(CCCc2c[nH]c3ccc(-n4cnnc4)cc23)CC1`, the concentration for half-maximal inhibition (IC50) is 340 nM in test [1] and 21 nM in test [2]. In addition, the Activity in test [4] was found to be 86%. The molecule further returned an ED50 in test [5] of 9.7 nM. Also, in test [3], the Ratio amounted to 16.

As for `CC1(C)CCCN(CC2(O)CCN(CCCc3c[nH]c4ccc(-n5cnnc5)cc34)CC2)C1`, the IC50 worked out at 19 nM in test [1] and 0.65 nM in test [2]. Further, in test [4], the Activity stood at 67%. This molecule also had an ED50 in test [5] of 0.9 nM. For the same molecule, in test [3], the Ratio was 29.

For the molecule `CN(Cc1ccccc1)CC1(O)CCN(CCCc2c[nH]c3ccc(-n4cnnc4)cc23)CC1`, the IC50 in test [1] came out at 96 nM; in test [2] it was 1.2 nM. The Activity in test [4] was 91%. Also, the ED50 in test [5] was 3.8 nM. The Ratio in test [3] came to 80.

Consider `OC1(CNCC2CC2)CCN(CCCc2c[nH]c3ccc(-n4cnnc4)cc23)CC1`, for which the IC50 in test [1] amounted to 57 nM; in test [2], 4.5 nM. The Ratio in test [3] came out at 13.

For `OC1(CNCc2ccccc2)CCN(CCCc2c[nH]c3ccc(-n4cnnc4)cc23)CC1`, the IC50 was 47 nM in test [1] and 0.45 nM in test [2]. The molecule further displayed an Activity in test [4] of 79%. The same molecule returned an ED50 in test [5] of 2.2 nM. The Ratio in test [3] was 106.

Take `CC(=O)Nc1ccc(CNCC2(O)CCN(CCCc3c[nH]c4ccc(-n5cnnc5)cc34)CC2)cc1`: the IC50 in test [1] turned out to be 30 nM; in test [2], 11 nM. In test [4], the Activity is 102%. Further, the ED50 in test [5] stood at 14 nM. Also, the Ratio in test [3] is 3.

`CC(C)CN(C)CC1(O)CCN(CCCc2c[nH]c3ccc(-n4cnnc4)cc23)CC1`: the IC50 is 30 nM in test [1] and 0.65 nM in test [2]. In test [4], this molecule gave an Activity of 95%. In test [5], this molecule returned an ED50 of 1.7 nM. Further, the Ratio in test [3] is 47.

As for `Cc1ccccc1CN(C)CC1(O)CCN(CCCc2c[nH]c3ccc(-n4cnnc4)cc23)CC1`, the IC50 in test [1] was found to be 89 nM; in test [2] it was 1.3 nM. In test [4], this molecule returned an Activity of 90%. The molecule also returned an ED50 in test [5] of 3.7 nM. In addition, the Ratio in test [3] worked out at 68.

On to `CN(CC(C)(C)C)CC1(O)CCN(CCCc2c[nH]c3ccc(-n4cnnc4)cc23)CC1`, for which the IC50 was found to be 61 nM in test [1] and 1.8 nM in test [2]. In test [4], the Activity was 60%. The molecule further displayed an ED50 in test [5] of 1.6 nM. Also, the Ratio in test [3] came to 34.

Turning to `CC(C)(C)CNCC1(O)CCN(CCCc2c[nH]c3ccc(-n4cnnc4)cc23)CC1`, the IC50 in test [1] came to 85 nM; in test [2], 7.3 nM. Moreover, the Ratio in test [3] turned out to be 12.

With `OC1(Cc2ccccc2)CCN(CCCc2c[nH]c3ccc(-n4cnnc4)cc23)CC1`, the IC50 came out at 32 nM in test [1] and 0.1 nM in test [2]. Besides, the Activity in test [4] amounted to 64%. Further, the ED50 in test [5] came out at 0.25 nM. Moreover, the Ratio in test [3] came to 251.

Turning to `CN(CC1CCCCC1)CC1(O)CCN(CCCc2c[nH]c3ccc(-n4cnnc4)cc23)CC1`, the IC50 in test [1] amounted to 27 nM; in test [2], 1.2 nM. For the same molecule, the Activity in test [4] is 69%. In addition, the ED50 in test [5] turned out to be 1.4 nM. The Ratio in test [3] turned out to be 22.

As for `OC1(CNCc2ccccn2)CCN(CCCc2c[nH]c3ccc(-n4cnnc4)cc23)CC1`, the IC50 was found to be 55 nM in test [1] and 3.2 nM in test [2]. For the same molecule, the Activity in test [4] is 96%. The molecule further had an ED50 in test [5] of 3.2 nM. In addition, the Ratio in test [3] stood at 17.

In the case of `CN(CC1CC1)CC1(O)CCN(CCCc2c[nH]c3ccc(-n4cnnc4)cc23)CC1`, the values for the IC50 in test [1] and in test [2] were 27 nM and 1.35 nM, respectively. This molecule gave an Activity in test [4] of 79%. Besides, the ED50 in test [5] turned out to be 1.1 nM. Also, the Ratio in test [3] turned out to be 20.
